Measured values as given in US4618612A (Medosan Industrie Biochimiche Riunite S.p.A., priority 1983, dated 1986).

Legend:
[1] = test system: carragenin-induced edema; assay: Carragenin-induced edema test (Winter); type: in vivo, rat
Method: This effect was measured with an experimental model reproducing acute inflammation in rats: the carragenin-induced edema test according to C.

[2] = test system: human platelet aggregation (PRP); assay: Human platelet aggregation in vitro induced by ADP, adrenalin, collagen or arachidonate; type: cell-based
Method: Blood samples (20 ml) were obtained by venal puncture of the antecubital fossa using plastic syringes containing trisodium citrate as anticoagulant (final concentration 0.19% w/v). Platelet rich plasma (PRP) was harvested after slow centrifugation at 170 g for 12 min. and 0.2 ml aliquots were dispensed into plastic cuvettes and stored at room temperature throughout the experiment.
Aliquots of 0.2 ml PRP from each sample were treated with ADP, adrenalin, collagen or arachidonate, until the threshold concentrations of these aggregating agents had been reached. The threshold concentration is defined as the minimum whcih will produce irreversible aggregation. Once established, the threshold concentration was used to challenge test samples of each of the 2 test compounds or vehicle (DMSO) which had been incubated for 1 min. at 37 C. in the holding cell of the agregometer, prior to addition of the aggregating agent.
This was reported as the final concentration in the PRP after addition of 2.5-10 ul of test substance.

[3] = test system: rat platelet-rich plasma (ADP-induced platelet aggregation); assay: Anti-platelet aggregation activity in vitro (Born's method), rat platelet-rich plasma, ADP-induced; type: cell-based
Method: Preparations (A), (B), (C), (D), (E) and (F) were administered "in vivo" orally and/or parenterally in 0.5% carboxymethylcellulose suspensions in physiological saline at neutral pH. When tested "in vitro", they were finely dispersed in neutral pH physiological saline.
This was studied "in vitro" following Born's method (Born G. W. R., Nature, 194, 937 (1962)) and inducing platelet aggregation with ADP.
Platelet-rich plasma was obtained by centrifugation for 10 minutes at 2,000 rpm of 9 parts rat blood to 1 part 3.13% sodium citrate solution. In performing the aggregation test, 0.2 ml of platelet rich plasm was mixed with a 0.9% NaCl solution to which the test substance was added to a final volume of 0.6 ml; the resulting mixture was incubated at 27° C. for 3 minutes. After inducement with ADP, aggregation was measured continuously with an Elvi 840 Aggregometer (Elvi Logos-Milan) to follow its course. The anti-aggregant effects were determined from the difference in the light transmission of the sample with respect to an ADP control.
Table I reports the platelet aggregation inhibition using different doses of the test compounds at a constant ADP concentration.

[4] = in vivo; details: mouse, mice
[5] = in vivo; details: rat, rats
[6] = test system: gastric mucosa; assay: Gastric tolerance (ulcerogenic activity); type: in vivo, male Wistar rats; details: 4 days; for Mean Severity: scale 0-5
Method: This was studied by conducting tests of ulcerogenic activity in male Wistar rats, weighing 180 g on the average, in groups of 10 animals each. Three doses of each substance were given, and one group of animals was treated with vehicle only in a volume of 10 ml/kg bodyweight. Each dose was given orally for four consecutive days; on the fifth day, the rats were killed and autopsied. The ulcerogenic effect was assessed according to the following scale:
(1) each hemorrhage point ≥1 mm was evaluated as 1 lesion
(2) hemorrhage points smaller than 1 mm were counted as follows:
(b) from 1 to 19:2 lesions
(c) from 1 to 29:3 lesions
(2) gastric mucosa irritation: 1
(3) hemorrahge points <1 mm: 2
(4) hemorrhage points between 1 and 3 mm: 3
(5) hemorrhage points >3 mm: 4
This scale was used to calculate the following gastric damage index: [formula]

[7] = ADP 2 μmol/l, dose 1 V/ml (Table II)
[8] = ADP 5 μmol/l, dose 1 V/ml (Table II)
[9] = ADP 7.08 μmol/l, dose 1 /ml (Table I)
[10] = ADP 7.08 μmol/l, dose 5 /ml (Table I)

Row | Molecule | % Edema Inhibition ([1]; I.P., 10 mg/kg, 3 h) | % Edema Inhibition ([1]; I.P., 10 mg/kg, 6 h) | % Edema Inhibition ([1]; I.P., 10 mg/kg, 24 h) | % Edema Inhibition ([1]; I.P., 50 mg/kg, 3 h) | % Edema Inhibition ([1]; I.P., 50 mg/kg, 6 h) | % Edema Inhibition ([1]; I.P., 50 mg/kg, 24 h) | % Edema Inhibition ([1]; I.P., 100 mg/kg, 3 h) | % Edema Inhibition ([1]; I.P., 100 mg/kg, 6 h) | % Edema Inhibition ([1]; I.P., 100 mg/kg, 24 h) | % Edema Inhibition ([1]; OS, 10 mg/kg, 3 h) | % Edema Inhibition ([1]; OS, 10 mg/kg, 6 h) | % Edema Inhibition ([1]; OS, 10 mg/kg, 24 h) | % Edema Inhibition ([1]; OS, 50 mg/kg, 3 h) | % Edema Inhibition ([1]; OS, 50 mg/kg, 6 h) | % Edema Inhibition ([1]; OS, 50 mg/kg, 24 h) | % Edema Inhibition ([1]; OS, 100 mg/kg, 3 h) | % Edema Inhibition ([1]; OS, 100 mg/kg, 6 h) | % Edema Inhibition ([1]; OS, 100 mg/kg, 24 h) | % Inhibition [3, 7] | % Inhibition [3, 8] | further results
1 | 1-Methyl-5-p-methylbenzoylpyrrol-2-acetate of 7-(3-oxypropyl)theophylline [(C)] | 38,0% | 36,2% | 0,0% | 53,1% | 50,0% | 2,0% | 69,5% | 62,0% | 10,0% | 40,2% | 34,0% | 0,0% | 59,0% | 57,0% | 22,2% | 70,0% | 66,1% | 31,0% | 36% | 27% | Minimum Effective Concentration (Final in PRP) ([2]; ADP, volunteer 1 (person delta for (A), person for (C))): 100 µM; Minimum Effective Concentration (Final in PRP) ([2]; ADP, volunteer 2 (donor gamma)): 100 µM; Minimum Effective Concentration (Final in PRP) ([2]; ADP, volunteer 3 (person alpha for (A), person for (C))): 250 µM; Minimum Effective Concentration (Final in PRP) ([2]; Adrenalin, volunteer 1): 100 µM; Minimum Effective Concentration (Final in PRP) ([2]; Adrenalin, volunteer 2 (donor gamma)): 0.25 µM; Minimum Effective Concentration (Final in PRP) ([2]; Adrenalin, volunteer 3): 100 µM; Minimum Effective Concentration (Final in PRP) ([2]; Arachidonate, volunteer 1): 400 µM; Minimum Effective Concentration (Final in PRP) ([2]; Arachidonate, volunteer 2 (donor gamma)): 10 µM; Minimum Effective Concentration (Final in PRP) ([2]; Arachidonate, volunteer 3): 10 µM; Minimum Effective Concentration (Final in PRP) ([2]; Collagen, volunteer 1): 350 µM; Minimum Effective Concentration (Final in PRP) ([2]; Collagen, volunteer 2 (donor gamma)): 250 µM; Minimum Effective Concentration (Final in PRP) ([2]; Collagen, volunteer 3): 100 µM; % Inhibition [3, 9]: 22%; % Inhibition ([3]; ADP 7.08 μmol/l, dose 2,5 /ml (Table I)): 75%; % Inhibition [3, 10]: 90%
2 | Cn1c(=O)c2c(ncn2CCCOC(=O)Cc2ccc(-n3cccc3)cc2)n(C)c1=O [(D)] | 31,8% | 32,7% | 1,0% | 50,1% | 45,9% | 8,6% | 67,0% | 65,4% | 9,6% | 39,0% | 32,0% | 0,0% | 53,1% | 52,0% | 11,6% | 66,8% | 64,1% | 16,7% | 31% | 24% | LD50 ([4]; ip, I.P.): 780 mg/kg; LD50 ([4]; po, OS): 1100 mg/kg; LD50 ([5]; ip, I.P.): 675 mg/kg; LD50 ([5]; po, OS): 1000 mg/kg
3 | Cc1ccc(C(=O)c2ccc(CC(=O)NCC(=O)OCCn3cnc4c3c(=O)n(C)c(=O)n4C)n2C)cc1 [(E)] | 31,8% | 29,0% | 0,0% | 56,9% | 54,8% | 12,0% | 80,0% | 76,9% | 23,0% | 34,0% | 33,8% | 0,0% | 54,4% | 49,8% | 10,0% | 78,8% | 79,0% | 32,6% | 35% | 29% | LD50 ([4]; ip, I.P.): 1100 mg/kg; LD50 ([4]; po, OS): 1400 mg/kg; LD50 ([5]; ip, I.P.): 987 mg/kg; LD50 ([5]; po, OS): 1340 mg/kg
4 | Cc1ccc(C(=O)c2ccc(CC(=O)OC(Cn3cnc4c3c(=O)n(C)c(=O)n4C)Cn3cnc4c3c(=O)n(C)c(=O)n4C)n2C)cc1 [(F)] | 43,8% | 34,8% | 0,0% | 56,0% | 33,0% | 0,0% | 78,6% | 65,6% | 15,8% | 23,9% | 24,0% | 0,0% | 47,0% | 46,0% | 0,0% | 66,0% | 66,0% | 12,0% | 32% | 23% | LD50 ([4]; ip, I.P.): 1240 mg/kg; LD50 ([4]; po, OS): 1680 mg/kg; LD50 ([5]; ip, I.P.): 1050 mg/kg; LD50 ([5]; po, OS): 1500 mg/kg
5 | Cc1ccc(C(=O)c2ccc(CC(=O)O)n2C)cc1 [Na Tolmetin 2H2 O, 1-methyl-5-p-methylbenzoylpyrrol-2-acetic acid, reference compound] | 32,0% | 23,0% | 0,0% | 48,6% | 53,2% | 0,0% | 67,3% | 55,1% | 0,0% | 30,5% | 24,0% | 0,0% | 49,0% | 52,0% | 0,0% | 59,0% | 54,2% | 0,0% |  |  | % incidence 10 ([6]; 50 mg/kg oral): 7 %/10; Mean No. lesions ([6]; 50 mg/kg oral): 2; Mean Severity ([6]; 50 mg/kg oral): 2; % incidence 10 ([6]; 100 mg/kg oral): 10 %/10; Mean No. lesions ([6]; 100 mg/kg oral): 2,5; Mean Severity ([6]; 100 mg/kg oral): 3,5; % incidence 10 ([6]; 200 mg/kg oral): 10 %/10; Mean No. lesions ([6]; 200 mg/kg oral): 3; Mean Severity ([6]; 200 mg/kg oral): 4
6 | CC(=O)Oc1ccccc1C(=O)O [aspirin, reference compound] |  |  |  |  |  |  |  |  |  |  |  |  |  |  |  |  |  |  | 29% | 19% | % Inhibition [3, 9]: 15%; % Inhibition [3, 10]: 60%; % Inhibition ([3]; ADP 7.08 μmol/l, dose 10 /ml (Table I)): 100%
